# Test results: PubChem BioAssay (NCI)
#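 In this assay, cells in 96-well plates receive the compound at five concentrations for 48 hours. Endpoints are linearly interpolated between the surrounding concentrations. GI50 marks 50% less growth. Definition used: TGI = concentration required for complete inhibition of growth.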
# Key:
# Assay in all cases: NCI-60 cell line screen, 48 h
# RXF 393 renal = tested on: RXF 393 renal
# DU-145 prostate = tested on: DU-145 prostate
# UO-31 renal = tested on: UO-31 renal
# A498 renal = tested on: A498 renal
# HOP-92 NSCLC = tested on: HOP-92 NSCLC
# SNB-75 CNS = tested on: SNB-75 CNS
# SF-539 CNS = tested on: SF-539 CNS
# MDA-MB-231 breast = tested on: MDA-MB-231 breast
# SK-MEL-28 melanoma = tested on: SK-MEL-28 melanoma
# UACC-62 melanoma = tested on: UACC-62 melanoma
# OVCAR-5 ovarian = tested on: OVCAR-5 ovarian
# ACHN renal = tested on: ACHN renal
# OVCAR-4 ovarian = tested on: OVCAR-4 ovarian
# OVCAR-8 ovarian = tested on: OVCAR-8 ovarian
# LOX IMVI melanoma = tested on: LOX IMVI melanoma
# TK-10 renal = tested on: TK-10 renal
smiles,measurement,setting,value
C=C(C)[C@@H]1CC[C@]2(COCCCNCCCN)CC[C@]3(C)[C@H](CC[C@@H]4[C@@]5(C)CC[C@H](O)C(C)(C)[C@@H]5CC[C@]43C)[C@@H]12,GI50,RXF 393 renal,1570 nM
same,TGI,RXF 393 renal,2960 nM
same,GI50,DU-145 prostate,1940 nM
same,TGI,DU-145 prostate,3490 nM
same,GI50,UO-31 renal,1600 nM
same,TGI,UO-31 renal,3030 nM
same,GI50,A498 renal,1850 nM
same,TGI,A498 renal,4210 nM
same,GI50,HOP-92 NSCLC,1520 nM
same,TGI,HOP-92 NSCLC,3140 nM
same,GI50,SNB-75 CNS,1730 nM
same,TGI,SNB-75 CNS,3370 nM
same,GI50,SF-539 CNS,1770 nM
same,TGI,SF-539 CNS,3390 nM
same,GI50,MDA-MB-231 breast,1850 nM
same,TGI,MDA-MB-231 breast,3490 nM
same,GI50,SK-MEL-28 melanoma,1750 nM
same,TGI,SK-MEL-28 melanoma,3370 nM
same,GI50,UACC-62 melanoma,1770 nM
same,TGI,UACC-62 melanoma,3390 nM
same,GI50,OVCAR-5 ovarian,1750 nM
same,TGI,OVCAR-5 ovarian,3230 nM
same,GI50,ACHN renal,1780 nM
same,TGI,ACHN renal,3240 nM
same,GI50,OVCAR-4 ovarian,1960 nM
same,TGI,OVCAR-4 ovarian,3730 nM
same,GI50,OVCAR-8 ovarian,2140 nM
same,TGI,OVCAR-8 ovarian,4880 nM
same,GI50,LOX IMVI melanoma,234 nM
same,TGI,LOX IMVI melanoma,2280 nM
same,GI50,TK-10 renal,1840 nM
same,TGI,TK-10 renal,3560 nM
